Test results as given in PubChem BioAssay (NCI).
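These data come from cells grown in 96-well plates and exposed to compound for 48 hours at five concentrations. The concentration for full growth arrest is given as TGI.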

Legend:
Experiment in all cases: NCI anticancer screen, dose series, 48 h
K-562 leukemia = system: K-562 leukemia
M14 melanoma = system: M14 melanoma
MCF7 breast = system: MCF7 breast
UACC-62 melanoma = system: UACC-62 melanoma
SK-MEL-2 melanoma = system: SK-MEL-2 melanoma
UO-31 renal = system: UO-31 renal
OVCAR-5 ovarian = system: OVCAR-5 ovarian
SF-295 CNS = system: SF-295 CNS
DU-145 prostate = system: DU-145 prostate
HOP-92 NSCLC = system: HOP-92 NSCLC
A549 NSCLC = system: A549 NSCLC
A498 renal = system: A498 renal
MDA-MB-435 = system: MDA-MB-435
TK-10 renal = system: TK-10 renal
IGROV1 ovarian = system: IGROV1 ovarian
NCI-H460 lung = system: NCI-H460 lung
HCC-2998 colon = system: HCC-2998 colon

Structure (SMILES) | TGI (K-562 leukemia) [µM] | TGI (M14 melanoma) [µM] | TGI (MCF7 breast) [µM] | TGI (UACC-62 melanoma) [µM] | TGI (SK-MEL-2 melanoma) [µM] | TGI (UO-31 renal) [µM] | TGI (OVCAR-5 ovarian) [µM] | TGI (SF-295 CNS) [µM] | TGI (DU-145 prostate) [µM] | TGI (HOP-92 NSCLC) [µM] | TGI (A549 NSCLC) [µM] | TGI (A498 renal) [µM] | TGI (MDA-MB-435) [µM] | TGI (TK-10 renal) [µM] | TGI (IGROV1 ovarian) [µM] | TGI (NCI-H460 lung) [µM] | TGI (HCC-2998 colon) [µM]
COC(=O)c1ccccc1C1CN=NC12Cc1cc3c(cc1C2=O)CCC3 (centres undefined) | > 100 | > 100 | > 100 | > 100 | > 100 | > 100 | > 100 | > 100 | > 100 | > 100 | > 100 | > 100 | > 100 | > 100 | > 100 | > 100 | > 100
COC(=O)NCCc1[nH]nc2c1C(=O)C=C(Nc1ccccc1OC)C2=O | > 100 | 62.9 | 38.7 | 39.9 | > 100 | > 100 | > 100 | > 100 | > 100 | > 100 | > 100 | > 100 | 30.8 | > 100 | 65.3 | > 100 | 40.3
C=CC(=O)C#Cc1cnc(OC)nc1OC | 3.84 | 37.7 | 30.6 | 34.4 | 59.7 | 33.5 | 33.9 | > 100 | > 100 | > 54.3 | > 100 | > 69.1 | 51.5 | 35.2 | 53.6 | > 59.9 | 42.2
C#CC(O)/C=C/C(O)CCCC(O)CC#CC(O)C#CCCCCC(O)/C=C/CCCCCC(=O)CCCCCCCCCCCCCC(O)C(O)C#CC(=O)O (centres undefined) | > 25 | > 25 | > 25 | > 25 | > 25 | > 25 | > 25 | > 25 | > 25 | > 25 | > 25 | > 25 | > 25 | > 25 | 9.59 | > 25 | > 25
COC1=CC(=O)C2=C(C1=O)[C@H]1CC[C@]3(C)C(=O)CC[C@H]3[C@@H]1CC2 | > 100 | > 100 | 35.4 | > 100 | 36.3 | 56.8 | 44.6 | > 100 | 57.1 | 35.8 | > 100 | > 100 | 45.6 | > 100 | 44.5 | > 100 | > 100
COC1(OC)CCCCCCCCC(OC)(OC)CCCCCCCC1 | > 100 | > 100 | > 100 | > 100 | > 100 | 10.9 | > 100 | > 100 | > 100 | > 100 | > 100 | > 100 | > 100 | > 100 | > 100 | > 100 | > 100
O=[N+]([O-])c1ccc(C2Nn3c(nnc3-c3cccc([N+](=O)[O-])c3)S2)cc1 (centres undefined) | > 100 | > 100 | > 100 | > 100 | > 100 | > 100 | > 100 | > 100 | > 100 | > 100 | > 100 | > 100 | > 100 | > 100 | > 100 | > 100 | > 100
